Assay results taken from ChEMBL document CHEMBL1201862, “PubChem BioAssay data set” (2004).
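Where inhibition never reached the appropriate level, the endpoint shown equals the highest concentration tested. Otherwise, values were interpolated linearly from a five-concentration, 48-hour dose response in 96-well plates. Here, GI50 denotes the concentration required for 50% inhibition of growth.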 Calls of active or inactive are those of the source. No stated cut-off is given here; in the data, active = GI50 up to about 1.1 µM and inactive = higher.

Legend:
Experiment in all cases: growth of human tumour cells (NCI), 48 h
A498 = test system: A498
EKVX = test system: EKVX
Hs-578T = test system: Hs-578T
IGROV-1 = test system: IGROV-1
KM12 = test system: KM12
LOX IMVI = test system: LOX IMVI
MDA-MB-435 = test system: MDA-MB-435
NCI-H226 = test system: NCI-H226
NCI/ADR-RES = test system: NCI/ADR-RES
OVCAR-5 = test system: OVCAR-5
RXF 393 = test system: RXF 393
SF-295 = test system: SF-295
SN12C = test system: SN12C
SNB-19 = test system: SNB-19
SNB-75 = test system: SNB-75
TK-10 = test system: TK-10
U-251 = test system: U-251
UACC-62 = test system: UACC-62
UO-31 = test system: UO-31

| Compound | GI50 (A498) | GI50 (EKVX) | GI50 (Hs-578T) | GI50 (IGROV-1) | GI50 (KM12) | GI50 (LOX IMVI) | GI50 (MDA-MB-435) | GI50 (NCI-H226) | GI50 (NCI/ADR-RES) | GI50 (OVCAR-5) | GI50 (RXF 393) | GI50 (SF-295) | GI50 (SN12C) | GI50 (SNB-19) | GI50 (SNB-75) | GI50 (TK-10) | GI50 (U-251) | GI50 (UACC-62) | GI50 (UO-31) |
| --- | --- | --- | --- | --- | --- | --- | --- | --- | --- | --- | --- | --- | --- | --- | --- | --- | --- | --- | --- |
| Cc1ccc(OCCn2cc(Nc3ccccc3)c(=O)n(CCOc3ccc(C)cc3)c2=O)cc1 | > 100 µM (inactive) | > 100 µM (inactive) | 67.6 µM (inactive) | 50.8 µM (inactive) | > 100 µM (inactive) | > 100 µM (inactive) | > 100 µM (inactive) | > 100 µM (inactive) | > 100 µM (inactive) | > 100 µM (inactive) | 23.5 µM (inactive) | 50.2 µM (inactive) | > 100 µM (inactive) | 48.9 µM (inactive) | > 100 µM (inactive) | 48.4 µM (inactive) | 51.6 µM (inactive) | > 100 µM (inactive) | > 100 µM (inactive) |
| COc1cc(CNCc2cc(OC)c(OC)c(OC)c2)cc(OC)c1OC | > 10 µM (inactive) | > 10 µM (inactive) | > 10 µM (inactive) | > 10 µM (inactive) | > 10 µM (inactive) | > 8.38 µM (inactive) | > 10 µM (inactive) | > 10 µM (inactive) | > 10 µM (inactive) | > 10 µM (inactive) | > 10 µM (inactive) | > 10 µM (inactive) | > 10 µM (inactive) | > 10 µM (inactive) | > 8.38 µM (inactive) | > 10 µM (inactive) | > 10 µM (inactive) | > 10 µM (inactive) | > 10 µM (inactive) |
| O=C1c2cccc3cc4ccccc4c(c23)C(=O)N1CCCNCCNCCCN1C(=O)c2cccc3cc4ccccc4c(c23)C1=O | 0.526 µM (active) | 1.15 µM (inactive) | 0.0635 µM (active) | 0.0139 µM (active) | 0.106 µM (active) | < 0.01 µM (active) | 0.0421 µM (active) | 0.411 µM (active) | 0.314 µM (active) | 0.257 µM (active) | 0.179 µM (active) | 0.0182 µM (active) | < 0.01 µM (active) | 0.217 µM (active) | 0.0263 µM (active) | 1 µM (active) | 0.0264 µM (active) | 0.0575 µM (active) | 0.33 µM (active) |
| COc1cc2c(cc1O)C1Cc3ccc(OC)c(O)c3C[N+]1(C)CC2 (centres undefined) | > 100 µM (inactive) | > 100 µM (inactive) | > 100 µM (inactive) | > 100 µM (inactive) | > 100 µM (inactive) | > 100 µM (inactive) | > 100 µM (inactive) | > 100 µM (inactive) | > 100 µM (inactive) | > 100 µM (inactive) | > 100 µM (inactive) | > 100 µM (inactive) | > 100 µM (inactive) | > 100 µM (inactive) | > 100 µM (inactive) | > 100 µM (inactive) | > 100 µM (inactive) | > 100 µM (inactive) | > 100 µM (inactive) |
| C[C@@H]1CC[C@@]2(C)C(C(=O)O)=CCCC2[C@@]1(C)CC(=O)c1ccoc1 (some centres undefined) | > 25 µM (inactive) | > 25 µM (inactive) | > 25 µM (inactive) | > 25 µM (inactive) | > 25 µM (inactive) | > 25 µM (inactive) | > 25 µM (inactive) | > 25 µM (inactive) | > 25 µM (inactive) | > 25 µM (inactive) | > 25 µM (inactive) | > 25 µM (inactive) | > 25 µM (inactive) | > 25 µM (inactive) | > 25 µM (inactive) | > 25 µM (inactive) | > 25 µM (inactive) | > 25 µM (inactive) | > 25 µM (inactive) |
| O=c1[nH]c(Br)nc2[nH]nnc12 | > 100 µM (inactive) | 70.1 µM (inactive) | 38.3 µM (inactive) | > 100 µM (inactive) | > 100 µM (inactive) | 6.89 µM (inactive) | 19.3 µM (inactive) | > 100 µM (inactive) | 10.4 µM (inactive) | > 100 µM (inactive) | 35 µM (inactive) | 72.8 µM (inactive) | 32.4 µM (inactive) | > 100 µM (inactive) | 23.1 µM (inactive) | 54.6 µM (inactive) | 68.7 µM (inactive) | 15.9 µM (inactive) | 11.7 µM (inactive) |
